According to ChEMBL document CHEMBL5370535, “Thiazolyl hydrazineylidenyl indolones as unique potential multitargeting broad-spectrum antimicrobial agents” (Eur J Med Chem, 2023):
In brackets after ≈: the same amount, converted by molar mass.

How the values were obtained:
Type in all cases: functional
[1] = tested on: Staphylococcus aureus; assay: Antibacterial activity against Staphylococcus aureus 25923 assessed as bacterial growth inhibition incubated for 24 hrs by CLSI based two serial dilution assay
[2] = tested on: Escherichia coli; assay: Antibacterial activity against Escherichia coli assessed as bacterial growth inhibition incubated for 24 hrs by CLSI based two serial dilution assay
[3] = tested on: Staphylococcus aureus; assay: Antibacterial activity against Staphylococcus aureus assessed as bacterial growth inhibition incubated for 24 hrs by CLSI based two serial dilution assay
[4] = tested on: Staphylococcus aureus; assay: Antibacterial activity against Staphylococcus aureus 29213 assessed as bacterial growth inhibition incubated for 24 hrs by CLSI based two serial dilution assay
[5] = tested on: Enterococcus faecalis; assay: Antibacterial activity against Enterococcus faecalis assessed as bacterial growth inhibition incubated for 24 hrs by CLSI based two serial dilution assay
[6] = tested on: Escherichia coli; assay: Antibacterial activity against Escherichia coli 25922 assessed as bacterial growth inhibition incubated for 24 hrs by CLSI based two serial dilution assay
[7] = tested on: Pseudomonas aeruginosa; assay: Antibacterial activity against Pseudomonas aeruginosa assessed as bacterial growth inhibition incubated for 24 hrs by CLSI based two serial dilution assay
[8] = tested on: Staphylococcus aureus; assay: Antibacterial activity against methicillin-resistant Staphylococcus aureus assessed as bacterial growth inhibition incubated for 24 hrs by CLSI based two serial dilution assay
[9] = tested on: Klebsiella pneumoniae; assay: Antibacterial activity against Klebsiella pneumoniae assessed as bacterial growth inhibition incubated for 24 hrs by CLSI based two serial dilution assay
[10] = tested on: Pseudomonas aeruginosa; assay: Antibacterial activity against Pseudomonas aeruginosa ATCC 27853 assessed as bacterial growth inhibition incubated for 24 hrs by CLSI based two serial dilution assay
[11] = tested on: Acinetobacter baumannii; assay: Antibacterial activity against Acinetobacter baumannii assessed as bacterial growth inhibition incubated for 24 hrs by CLSI based two serial dilution assay
[12] = tested on: Candida tropicalis; assay: Antifungal activity against Candida tropicalis assessed as inhibition of fungal growth incubated for 24 hrs by CLSI based two serial dilution assay
[13] = tested on: Candida parapsilosis; assay: Antifungal activity against Candida parapsilosis ATCC 22019 assessed as inhibition of fungal growth incubated for 24 hrs by CLSI based two serial dilution assay; conditions: Lodderomyces parapsilosis
[14] = tested on: Aspergillus fumigatus; assay: Antifungal activity against Aspergillus fumigatus assessed as inhibition of fungal growth incubated for 24 hrs by CLSI based two serial dilution assay
[15] = tested on: Candida albicans; assay: Antifungal activity against Candida albicans ATCC 90023 assessed as inhibition of fungal growth incubated for 24 hrs by CLSI based two serial dilution assay
[16] = tested on: Candida albicans; assay: Antifungal activity against Candida albicans assessed as inhibition of fungal growth incubated for 24 hrs by CLSI based two serial dilution assay

Row | Compound | MIC [1] | MIC [2] | MIC [3] | MIC [4] | MIC [5] | MIC [6] | MIC [7] | MIC [8] | MIC [9] | MIC [10] | MIC [11] | MIC [12] | MIC [13] | MIC [14] | MIC [15] | MIC [16]
1 | O=C(N[C@H](CO)[C@H](O)c1ccc([N+](=O)[O-])cc1)C(Cl)Cl [CHLORAMPHENICOL] | 8 µM (≈ 2.59 µg/mL) | 32 µM (≈ 10.3 µg/mL) | 8 µM (≈ 2.59 µg/mL) | 4 µM (≈ 1.29 µg/mL) | 8 µM (≈ 2.59 µg/mL) | 16 µM (≈ 5.17 µg/mL) | 32 µM (≈ 10.3 µg/mL) | 16 µM (≈ 5.17 µg/mL) | 8 µM (≈ 2.59 µg/mL) | 8 µM (≈ 2.59 µg/mL) | 16 µM (≈ 5.17 µg/mL) |  |  |  |  | 
2 | OC(Cn1cncn1)(Cn1cncn1)c1ccc(F)cc1F [FLUCONAZOLE] |  |  |  |  |  |  |  |  |  |  |  | 8 µM (≈ 2.45 µg/mL) | 4 µM (≈ 1.23 µg/mL) | 256 µM (≈ 78.4 µg/mL) | 2 µM (≈ 0.613 µg/mL) | 4 µM (≈ 1.23 µg/mL)
3 | O=C1/C(=N\Nc2nccs2)c2ccccc2N1Cc1cccc(Cl)c1 | 8 µM (≈ 2.95 µg/mL) | 128 µM (≈ 47.2 µg/mL) | 32 µM (≈ 11.8 µg/mL) | 16 µM (≈ 5.9 µg/mL) | 32 µM (≈ 11.8 µg/mL) | 256 µM (≈ 94.4 µg/mL) | 256 µM (≈ 94.4 µg/mL) | 16 µM (≈ 5.9 µg/mL) | 256 µM (≈ 94.4 µg/mL) | 512 µM (≈ 189 µg/mL) | 256 µM (≈ 94.4 µg/mL) | 64 µM (≈ 23.6 µg/mL) | 128 µM (≈ 47.2 µg/mL) | 16 µM (≈ 5.9 µg/mL) | 128 µM (≈ 47.2 µg/mL) | 256 µM (≈ 94.4 µg/mL)
4 | CCCCN1C(=O)/C(=N\Nc2nccs2)c2cccc(Cl)c21 | 0.5 µM (≈ 0.167 µg/mL) | 1 µM (≈ 0.335 µg/mL) | 64 µM (≈ 21.4 µg/mL) | 64 µM (≈ 21.4 µg/mL) | 1 µM (≈ 0.335 µg/mL) | 0.5 µM (≈ 0.167 µg/mL) | 1 µM (≈ 0.335 µg/mL) | 0.5 µM (≈ 0.167 µg/mL) | 0.5 µM (≈ 0.167 µg/mL) | 0.5 µM (≈ 0.167 µg/mL) | 0.5 µM (≈ 0.167 µg/mL) | 4 µM (≈ 1.34 µg/mL) | 32 µM (≈ 10.7 µg/mL) | 128 µM (≈ 42.9 µg/mL) | 1 µM (≈ 0.335 µg/mL) | 0.5 µM (≈ 0.167 µg/mL)
5 | CCCCN1C(=O)/C(=N\Nc2nc(C)c(C(=O)OCC)s2)c2ccccc21 | 512 µM (≈ 198 µg/mL) | 256 µM (≈ 98.9 µg/mL) | 64 µM (≈ 24.7 µg/mL) | 64 µM (≈ 24.7 µg/mL) | 256 µM (≈ 98.9 µg/mL) | 128 µM (≈ 49.5 µg/mL) | 1 µM (≈ 0.386 µg/mL) | 128 µM (≈ 49.5 µg/mL) | 256 µM (≈ 98.9 µg/mL) | 256 µM (≈ 98.9 µg/mL) | 128 µM (≈ 49.5 µg/mL) | 128 µM (≈ 49.5 µg/mL) | 256 µM (≈ 98.9 µg/mL) | 128 µM (≈ 49.5 µg/mL) | 512 µM (≈ 198 µg/mL) | 512 µM (≈ 198 µg/mL)
6 | CCCCN1C(=O)/C(=N\Nc2nccs2)c2cc(Br)ccc21 | 32 µM (≈ 12.1 µg/mL) | 16 µM (≈ 6.07 µg/mL) | 64 µM (≈ 24.3 µg/mL) | 16 µM (≈ 6.07 µg/mL) | 32 µM (≈ 12.1 µg/mL) | 16 µM (≈ 6.07 µg/mL) | 8 µM (≈ 3.03 µg/mL) | 16 µM (≈ 6.07 µg/mL) | 256 µM (≈ 97.1 µg/mL) | 256 µM (≈ 97.1 µg/mL) | 16 µM (≈ 6.07 µg/mL) | 64 µM (≈ 24.3 µg/mL) | 32 µM (≈ 12.1 µg/mL) | 16 µM (≈ 6.07 µg/mL) | 64 µM (≈ 24.3 µg/mL) | 32 µM (≈ 12.1 µg/mL)
7 | CCCCN1C(=O)/C(=N\Nc2nccs2)c2ccc(Cl)cc21 | 0.5 µM (≈ 0.167 µg/mL) | 1 µM (≈ 0.335 µg/mL) | 1 µM (≈ 0.335 µg/mL) | 4 µM (≈ 1.34 µg/mL) | 2 µM (≈ 0.67 µg/mL) | 4 µM (≈ 1.34 µg/mL) | 0.5 µM (≈ 0.167 µg/mL) | 0.5 µM (≈ 0.167 µg/mL) | 0.5 µM (≈ 0.167 µg/mL) | 4 µM (≈ 1.34 µg/mL) | 0.5 µM (≈ 0.167 µg/mL) | 1 µM (≈ 0.335 µg/mL) | 0.5 µM (≈ 0.167 µg/mL) | 1 µM (≈ 0.335 µg/mL) | 2 µM (≈ 0.67 µg/mL) | 0.5 µM (≈ 0.167 µg/mL)
8 | CCCCN1C(=O)/C(=N\Nc2nccs2)c2c(Cl)cccc21 | 512 µM (≈ 171 µg/mL) | 256 µM (≈ 85.7 µg/mL) | 512 µM (≈ 171 µg/mL) | 1 µM (≈ 0.335 µg/mL) | 128 µM (≈ 42.9 µg/mL) | 512 µM (≈ 171 µg/mL) | 1 µM (≈ 0.335 µg/mL) | 256 µM (≈ 85.7 µg/mL) | 1 µM (≈ 0.335 µg/mL) | 128 µM (≈ 42.9 µg/mL) | 256 µM (≈ 85.7 µg/mL) | 128 µM (≈ 42.9 µg/mL) | 16 µM (≈ 5.36 µg/mL) | 256 µM (≈ 85.7 µg/mL) | 512 µM (≈ 171 µg/mL) | 256 µM (≈ 85.7 µg/mL)
9 | CCCCN1C(=O)/C(=N\Nc2nccs2)c2cc(C)ccc21 | 8 µM (≈ 2.52 µg/mL) | 4 µM (≈ 1.26 µg/mL) | 4 µM (≈ 1.26 µg/mL) | 2 µM (≈ 0.629 µg/mL) | 32 µM (≈ 10.1 µg/mL) | 4 µM (≈ 1.26 µg/mL) | 16 µM (≈ 5.03 µg/mL) | 4 µM (≈ 1.26 µg/mL) | 2 µM (≈ 0.629 µg/mL) | 32 µM (≈ 10.1 µg/mL) | 2 µM (≈ 0.629 µg/mL) | 2 µM (≈ 0.629 µg/mL) | 1 µM (≈ 0.314 µg/mL) | 2 µM (≈ 0.629 µg/mL) | 4 µM (≈ 1.26 µg/mL) | 4 µM (≈ 1.26 µg/mL)
10 | O=C1/C(=N\Nc2nccs2)c2ccccc2N1Cc1ccc(Cl)cc1Cl | 4 µM (≈ 1.61 µg/mL) | 64 µM (≈ 25.8 µg/mL) | 4 µM (≈ 1.61 µg/mL) | 2 µM (≈ 0.807 µg/mL) | 64 µM (≈ 25.8 µg/mL) | 128 µM (≈ 51.6 µg/mL) | 64 µM (≈ 25.8 µg/mL) | 128 µM (≈ 51.6 µg/mL) | 128 µM (≈ 51.6 µg/mL) | 64 µM (≈ 25.8 µg/mL) | 64 µM (≈ 25.8 µg/mL) | 64 µM (≈ 25.8 µg/mL) | 32 µM (≈ 12.9 µg/mL) | 16 µM (≈ 6.45 µg/mL) | 16 µM (≈ 6.45 µg/mL) | 32 µM (≈ 12.9 µg/mL)
